US6365572B1, “Low molecular weight peptide derivatives as inhibitors of the laminin/nidogen interaction” (Aventis Pharma Deutschland GmbH, priority 1999, dated 2002)
Like-named read-outs stand apart in the source and are kept apart here. Starred links: 1 amine or outer side, 2 acyl side, 3 side chain; linkers in the order of their positions; H or OH if unused. Non-standard residues stand in square brackets, D forms with d. Residues, ends and D or L forms follow the SMILES beside them. No end group written: not given here. ξ: configuration not given here. *: point of attachment. Bip = N[C@@H](Cc1ccc(-c2ccccc2)cc1)C(=O)O; 2Nal = N[C@@H](Cc1ccc2ccccc2c1)C(=O)O; NH(3-hydroxypropyl) = OCCCN*; Suc = O=C(CCC(=O)[*:2])[*:1]; ξN = NC(=O)CC(N)C(=O)O; Bn = c1ccc(C*)cc1

Key:
[1] = target: T1, laminin/nidogen association (Homo sapiens, UniProt P14543); experiment: Three-day equilibrium assay, inhibition of laminin/nidogen association; assay type: binding; details: Table 2, 3-day equilibrium assay variant
T1 sequence (P14543 29-1247): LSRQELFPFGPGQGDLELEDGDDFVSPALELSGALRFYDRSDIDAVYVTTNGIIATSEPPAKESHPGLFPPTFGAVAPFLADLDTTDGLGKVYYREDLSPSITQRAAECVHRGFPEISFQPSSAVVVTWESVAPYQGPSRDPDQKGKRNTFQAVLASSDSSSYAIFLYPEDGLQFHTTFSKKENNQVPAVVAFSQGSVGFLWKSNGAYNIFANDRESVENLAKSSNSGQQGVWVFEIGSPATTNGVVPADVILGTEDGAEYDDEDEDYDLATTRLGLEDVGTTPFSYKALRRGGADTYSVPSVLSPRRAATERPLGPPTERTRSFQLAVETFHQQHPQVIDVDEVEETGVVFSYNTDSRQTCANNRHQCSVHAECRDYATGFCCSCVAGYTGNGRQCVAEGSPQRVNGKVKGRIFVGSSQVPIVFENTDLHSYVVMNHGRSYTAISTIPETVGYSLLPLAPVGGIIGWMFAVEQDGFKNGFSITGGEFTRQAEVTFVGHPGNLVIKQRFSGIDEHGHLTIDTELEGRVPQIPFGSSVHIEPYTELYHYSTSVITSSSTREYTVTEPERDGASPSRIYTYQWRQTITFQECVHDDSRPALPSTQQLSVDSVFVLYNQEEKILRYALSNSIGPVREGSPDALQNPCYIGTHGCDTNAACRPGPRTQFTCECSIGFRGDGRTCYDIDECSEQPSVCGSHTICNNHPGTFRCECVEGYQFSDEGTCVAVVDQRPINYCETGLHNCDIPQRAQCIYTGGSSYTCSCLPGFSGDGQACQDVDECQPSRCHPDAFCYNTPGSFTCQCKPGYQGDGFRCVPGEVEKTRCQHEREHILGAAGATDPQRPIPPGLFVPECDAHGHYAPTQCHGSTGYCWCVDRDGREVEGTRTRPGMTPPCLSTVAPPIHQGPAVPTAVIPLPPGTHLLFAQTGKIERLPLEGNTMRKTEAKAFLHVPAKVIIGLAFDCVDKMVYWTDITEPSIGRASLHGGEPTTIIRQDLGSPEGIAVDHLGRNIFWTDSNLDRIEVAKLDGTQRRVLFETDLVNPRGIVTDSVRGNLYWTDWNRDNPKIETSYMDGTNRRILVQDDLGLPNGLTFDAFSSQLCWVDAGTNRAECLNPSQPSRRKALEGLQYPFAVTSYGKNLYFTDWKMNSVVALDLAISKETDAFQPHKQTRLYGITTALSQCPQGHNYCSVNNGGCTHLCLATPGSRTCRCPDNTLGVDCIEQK
Text: 3.1.2. Three-day equilibrium assay Selected inhibitors were investigated for inhibitory activity in this assay variant. The assay is described in U.S. Pat. No. 5,493,008. The following table compares IC50 values of selected substances with the results of the HTS screening assay. It is clear that the 3-day assay gives slightly lower measured values and, as expected, is more sensitive than the screening assay. However, it is also clear from the comparison that inhibitory structures can be identified reliably with the screening assay developed by us.

[2] = target: T2, laminin/nidogen interaction (laminin P1, recombinantly produced human nidogen) (Homo sapiens, UniProt P14543); experiment: HTS screening assay (time-resolved fluorescence), inhibition of laminin/nidogen binding
T2 construct: made in house; host or cells: HEK-293
T2 sequence (P14543 29-1247): T1 sequence (P14543 29-1247)
Experimental: 5) The compound stocks were preincubated with nidogen (10 μl compound stock to 90 μl nidogen solution) and the assay was performed as described in the attached protocol, yielding a final screening concentration of 2.7 μM per compound. The isolation of laminin P1 from human placenta, human nidogen from transfected HEK-293 cells and mouse laminin γ1III 3-5 from HEK-293 cells is described in WO 98/31709. 3.1.1. HTS screening assay (highly sensitive assay variant): Time-Resolved Fluorescence Assay Coating of test tubes Microtiter plates (for example FluoroNunc®) were coated with 75 μl of a 0.1 μg/ml solution of laminin P1 (in 0.159 g of Na2CO3, 0.293 g of NaHCO3, 0.02 g of NaN3/liter, pH 9.2) at room temperature for 1 hour. The solution was then tipped off, and free binding sites were blocked by incubation with 0.5% BSA (in 7.9 g of NaCl, 1.2 g of Na2HPO4, 0.31 g of KCl, 0.23 g of NaH2PO4, 0.04% Tween 20/liter, pH 7.2) at room temperature for 0.5 hour. Completion of the blocking reaction was followed by decantation of the solution and washing once with 250 μl of washing buffer (PBS/0.04% Tween). Sequential inhibition In parallel with the coating, a preincubation of 85-100 μl of a 0.25 nM nidogen solution (recombinantly produced human nidogen) with inhibitor or standard was carried out in a separate reaction vessel (1 hour at room temperature in 7.9 g of NaCl, 1.2 g of Na2HPO4, 0.31 g of KCl, 0.23 g of NaH2PO4, 0.04% Tween 20/liter, 0.5% BSA, pH 7.2). 75 μl of the preincubation (nidogen+inhibitor or standard) were transferred into the coated wells of the microtiter plate and incubated at room temperature for 1 hour. This was followed by washing twice with PBS/0.04% Tween. Detection of the bound nidogen took place by incubation (at room temperature) for 1 hour with 75 μl of a specific antibody preparation obtained from yolks of eggs from a chicken immunized with human nidogen. The IgY fraction was used in a dilution of 1:500 in PBS/0.04% Tween. The complex of nidogen and specifically bound antibodies was, after washing twice with PBS/0.04% Tween, detected by adding anti-chicken IgY-biotin (75 μl of a 1:2500 dilution; Promega, Madison, Wis. 53711, 608-274-4330). An incubation time of 1 hour and washing twice with PBS/0.04% Tween were followed for this purpose by incubation with streptavidin-europium (Wallac; 1 hour at room temperature) and washing twice with PBS/0.04% Tween. It was finally possible, after adding 100 μl of enhancement solution (Wallac) and shaking for 5 minutes, to measure a fluorescence signal in a Victor multilabel counter using the europium protocol. The relation between the amount, of bound nidogen in the solutions with inhibitor and that of nidogen without added inhibitor was found.

[3] = Table 2, HTS assay variant, read-out: IC50, HTS assay
[4] = results table 1.3, synthesized compounds 1 to 43, read-out: IC50

In the case of `CC(C)[C@H](NC(=O)[C@H](CO)NC(=O)[C@H](CC(N)=O)NC(=O)[C@H](Cc1ccc2ccccc2c1)NC(=O)CCC(=O)O)C(=O)NCC(=O)NCCCO` [Compound 24, Succinyl-L-3-(2-naphthyl)alanyl-L-asparaginyl-L-seryl-L-valyl-glycine-3-hydroxypropylamide] (Suc-[2Nal]NSVG-{NH(3-hydroxypropyl)}), the IC50 [1] is reported as 0.09 µM, the IC50 [2, 3] is reported as 0.36 µM and the IC50 [2, 4] is reported as 0.39 µM.
`CC(C)[C@H](NC(=O)[C@H](C)NC(=O)[C@H](CC(N)=O)NC(=O)[C@H](Cc1ccc2ccccc2c1)NC(=O)CCC(=O)O)C(N)=O` [Compound 31, Succinyl-L-3-(2-naphthyl)alanyl-L-asparaginyl-L-alanyl-L-valine-amide] (Suc-[2Nal]NAV-NH2) was tested, and the IC50 [1] was 0.085 µM, the IC50 [2, 3] was 0.19 µM and the IC50 [2, 4] was 0.19 µM.
`CC(C)[C@H](NC(=O)CNC(=O)[C@H](CC(N)=O)NC(=O)[C@H](Cc1ccc2ccccc2c1)NC(=O)CCC(=O)O)C(N)=O` [Compound 33, Succinyl-L-3-(2-naphthyl)alanyl-L-asparaginyl-glycinyl-L-valine-amide] (Suc-[2Nal]NGV-NH2) showed an IC50 [2, 4] of 0.72 µM.
`CC(C)[C@H](NC(=O)[C@H](C)NC(=O)[C@H](CC(N)=O)NC(=O)[C@H](Cc1ccc(OCc2ccccc2)cc1)NC(=O)CCC(=O)O)C(N)=O` [Compound 35, Succinyl-L-O-benzyl-tyrosyl-L-asparaginyl-L-alanyl-L-valine-amide] (Suc-Y(Bn)NAV-NH2) was tested, and the IC50 [2, 4] was 5.02 µM.
`CC(C)[C@H](NC(=O)[C@H](C)NC(=O)[C@H](CC(N)=O)NC(=O)[C@H](Cc1ccc(-c2ccccc2)cc1)NC(=O)CCC(=O)O)C(N)=O` [Compound 36, Succinyl-L-3-(4-biphenyl)alanyl-L-asparaginyl-L-alanyl-L-valine-amide] (Suc-[Bip]NAV-NH2) was tested, and the IC50 [2, 4] was 2.83 µM.
Work on `CC(C)[C@H](NC(=O)[C@H](C)NC(=O)[C@H](CC(N)=O)NC(=O)[C@H](Cc1ccc2ccccc2c1)NC(=O)CCC(=O)O)C(=O)O` [Compound 37, Succinyl-L-3-(2-Naphthyl)alanyl-L-asparaginyl-L-alanyl-L-valine] (Suc-[2Nal]NAV-OH) yielded an IC50 [2, 4] of 0.83 µM.
For `CC(C)[C@@H](CO)NC(=O)[C@H](C)NC(=O)[C@H](CC(N)=O)NC(=O)[C@H](Cc1ccc2ccccc2c1)NC(=O)CCC(=O)O` [Compound 38, Succinyl-L-3-(2-Naphthyl)alanyl-L-asparaginyl-L-alaninyl-L-valinol], the IC50 [2, 4] was 0.26 µM.
`CC(C)C(NC(=O)[C@H](C)NC(=O)[C@H](CC(N)=O)NC(=O)[C@H](Cc1ccc2ccccc2c1)NC(=O)CCC(=O)O)C(C)C` [Compound 39, Succinyl-L-3-(2-Naphthyl)alanyl-L-asparaginyl-L-alanine-2,4-dimethylpentylamide] gave an IC50 [2, 4] of 1.5 µM.
With `C[C@H](NC(=O)[C@H](CC(N)=O)NC(=O)[C@H](Cc1ccc2ccccc2c1)NC(=O)CCC(=O)O)C(=O)NCC(C)(C)C` [Compound 40, Succinyl-L-3-(2-Naphthyl)alanyl-L-asparaginyl-L-alanine-neopentylamide] the IC50 [2, 4] was 1.16 µM.
In the case of `C[C@H](NC(=O)[C@H](CC(N)=O)NC(=O)[C@H](Cc1ccc2ccccc2c1)NC(=O)CCC(=O)O)C(=O)N1CCCC(C)(C)C1` [Compound 41, Succinyl-L-3-(2-Naphthyl)alanyl-L-asparaginyl-L-alanine-3,3-dimethylpiperidinylamide], the IC50 [2, 4] is reported as 8.17 µM.
Work on `CC(C)[C@H](NC(=O)[C@H](C)NC(=O)[C@H](CC(N)=O)NC(=O)[C@H](Cc1ccc2ccccc2c1)NC(=O)CCC(=O)O)C(=O)N(C)C` [Compound 42, Succinyl-L-3-(2-Naphthyl)alanyl-L-asparaginyl-L-alanyl-L-valine-dimethylamide] (Suc-[2Nal]NAV-NMe2) yielded an IC50 [2, 4] of 0.24 µM.
`CC[C@H](C)[C@H](NC(=O)C(N)CC(N)=O)C(=O)N[C@@H](CC(=O)O)C(=O)N1CCC[C@H]1C(=O)N[C@@H](CC(N)=O)C(=O)N[C@@H](C)C(=O)N[C@H](C(=O)O)C(C)C` (stereo partly drawn) [NIDPNAV, Asn-lie-Asp-Pro-Asn-Ala-Val, reference compound] (H-[ξN]IDPNAV-OH) was tested, and the IC50 [1] was 1.2 µM and the IC50 [2, 3] was 3.9 µM.
With DPNAV [DPNAV, reference compound] the IC50 [1] was 5 µM and the IC50 [2, 3] was 7.7 µM.
